Laboratory results taken from patent publication US20230145835A1, “Modulators of Alpha-4-beta-7 Integrin and MAdCAM” (48HD Biopharma Inc., priority 2021, published 2023).
Where two headings read alike, the source gives them in different places. Blank lines part the entries; values can stand above or below the compound they belong to. Numbered stars: 1 amine (or outer) side, 2 acyl side, 3 side chain; on linkers, the order of the positions; unused ones are H or OH. Bridge positions count the residues as written; N and C are the ends. Square brackets hold non-standard residues; d marks the D form. Peptide text beside a SMILES is read from it. ξ: configuration not given here. X8 = O=C(/C=N/O/C=C/CCCCOc1cc(C[*:2])cc(C[*:3])c1)[*:1]; X3 = O=C(/C=N/OCCCCCCOc1cc(C[*:2])cc(C[*:3])c1)[*:1]; X1 = O=C(C=NOCCCCCCOc1cc(C[*:2])cc(C[*:3])c1)[*:1]; X5 = O=C(CCCCCCOc1cc(C[*:2])cc(C[*:3])c1)[*:1]; hIle(4ξ) = CCC(C)C[C@H](N)C(=O)O; tBuAla = CC(C)(C)C[C@H](N)C(=O)O; aThr = C[C@H](O)[C@H](N)C(=O)O; hSer = N[C@@H](CCO)C(=O)O; Nle = CCCC[C@H](N)C(=O)O

Target: T1, rh-integrin α4β7/LPAM-1 (Homo sapiens, UniProt P13612+P26010)
T1 sequence (P13612 34-977 limits assumed): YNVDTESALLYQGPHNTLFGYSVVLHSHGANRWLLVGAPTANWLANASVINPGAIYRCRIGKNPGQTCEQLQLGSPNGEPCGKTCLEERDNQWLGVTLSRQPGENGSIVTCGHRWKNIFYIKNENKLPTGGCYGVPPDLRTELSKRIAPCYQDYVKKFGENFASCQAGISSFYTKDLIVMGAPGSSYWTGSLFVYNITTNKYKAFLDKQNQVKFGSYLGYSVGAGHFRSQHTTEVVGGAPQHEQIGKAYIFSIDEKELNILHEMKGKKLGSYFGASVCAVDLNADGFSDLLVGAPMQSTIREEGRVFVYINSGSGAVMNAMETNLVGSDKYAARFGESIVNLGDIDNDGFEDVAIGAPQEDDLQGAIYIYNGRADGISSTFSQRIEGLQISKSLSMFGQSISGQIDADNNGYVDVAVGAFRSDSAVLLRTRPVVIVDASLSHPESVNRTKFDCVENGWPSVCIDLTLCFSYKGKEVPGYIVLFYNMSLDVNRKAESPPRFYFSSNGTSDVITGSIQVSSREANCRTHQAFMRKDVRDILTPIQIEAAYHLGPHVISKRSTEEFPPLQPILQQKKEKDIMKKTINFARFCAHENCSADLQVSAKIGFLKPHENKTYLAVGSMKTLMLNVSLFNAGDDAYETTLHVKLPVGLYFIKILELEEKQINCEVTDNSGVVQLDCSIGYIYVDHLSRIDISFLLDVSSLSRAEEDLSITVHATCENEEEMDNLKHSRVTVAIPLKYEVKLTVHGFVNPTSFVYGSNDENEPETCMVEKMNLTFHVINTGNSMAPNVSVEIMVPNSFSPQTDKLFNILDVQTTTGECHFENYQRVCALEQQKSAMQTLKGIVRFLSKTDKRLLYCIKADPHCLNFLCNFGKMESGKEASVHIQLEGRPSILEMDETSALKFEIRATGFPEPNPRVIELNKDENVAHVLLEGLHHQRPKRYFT
T1 sequence (P26010 20-723 limits assumed): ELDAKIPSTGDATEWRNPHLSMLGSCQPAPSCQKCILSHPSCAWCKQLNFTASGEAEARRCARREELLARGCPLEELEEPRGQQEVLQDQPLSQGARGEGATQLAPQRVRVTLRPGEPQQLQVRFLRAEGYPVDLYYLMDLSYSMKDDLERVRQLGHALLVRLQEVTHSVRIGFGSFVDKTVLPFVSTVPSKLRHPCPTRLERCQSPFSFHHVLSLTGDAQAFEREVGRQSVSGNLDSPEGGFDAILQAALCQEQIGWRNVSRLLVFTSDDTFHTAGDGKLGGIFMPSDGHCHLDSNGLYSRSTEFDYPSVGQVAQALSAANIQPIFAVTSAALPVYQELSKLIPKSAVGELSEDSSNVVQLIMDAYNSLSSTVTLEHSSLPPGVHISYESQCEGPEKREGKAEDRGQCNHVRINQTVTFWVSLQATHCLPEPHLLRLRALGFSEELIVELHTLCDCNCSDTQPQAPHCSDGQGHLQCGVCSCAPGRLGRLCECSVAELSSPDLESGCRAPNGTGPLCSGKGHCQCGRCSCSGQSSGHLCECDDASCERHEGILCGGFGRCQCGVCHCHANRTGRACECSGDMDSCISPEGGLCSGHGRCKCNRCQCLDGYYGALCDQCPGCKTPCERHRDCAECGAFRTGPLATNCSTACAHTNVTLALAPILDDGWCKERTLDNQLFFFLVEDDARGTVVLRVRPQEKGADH
Test: α4β7-MadCAM Competition ELISA (Example 4)
Format: binding
Conditions: read-out: IC50
Procedure: After washing with wash buffer, 200 μL assay buffer was added to each well and incubated for one hour at 28° C. After another wash with wash buffer, 100 μL of a MAdCAM and peptide mixture in assay buffer was added to each well and incubated for one hour at 28° C., followed by washing with wash buffer.

[1] = Table 3 Representative compounds, inhibition of MAdCAM binding to coated α4β7

SMILES: CC[C@H](C)[C@@H]1NC(=O)[C@H](CC(=O)O)NC(=O)[C@H](CCSC)NC(=O)[C@@H]2CCCN2C(=O)[C@@H](NC(=O)[C@H](CCC(N)=O)NC(=O)[C@H](CO)NC(C)=O)CSSC[C@@H](C(N)=O)NC(=O)[C@H]([C@@H](C)O)NC(=O)[C@@H]2CCCN2C1=O [compound 47] (Ac-SQCPMDIPTC-NH2; disulfide 3-10)
- IC50 [1]: 1.7 µM

SMILES: CC(C)C[C@@H]1NC(=O)[C@@H]2CCCN2C(=O)[C@@H]2CSCc3cc(cc(c3)OCCCCCCO/N=C/C(=O)N[C@@H](CCCCN)C(=O)N2)CSC[C@@H](C(N)=O)NC(=O)[C@H](CCC(=O)O)NC(=O)[C@H](Cc2ccc(O)cc2)NC(=O)[C@@H]2CCCN2C(=O)[C@H]([C@@H](C)O)NC(=O)[C@H](C)NC1=O [compound 108, TSL6- SKCPLATPYEC] (KCPLATPYEC-NH2; linker N-2-10 via X3)
- IC50 [1]: > 500 µM

SMILES: C[C@@H]1NC(=O)[C@@H]2CCCN2C(=O)[C@@H]2CSCc3cc(cc(c3)OCCCCCCO/N=C/C(=O)N[C@@H](CCCCN)C(=O)N2)CSC[C@@H](C(N)=O)NC(=O)[C@H](CCC(=O)O)NC(=O)[C@H](Cc2ccc(O)cc2)NC(=O)[C@@H]2CCCN2C(=O)[C@H]([C@@H](C)O)NC(=O)[C@H](CC(=O)O)NC1=O [compound 109, TSL- 6SKCPADTPYEC] (KCPADTPYEC-NH2; linker N-2-10 via X3)
- IC50 [1]: > 500 µM

SMILES: CC[C@H](C)[C@@H]1NC(=O)[C@H](C(C)C)NC(=O)[C@H](CC(=O)O)NC(=O)[C@H](CC(C)C)NC(=O)[C@H](CCSC)NC(=O)[C@@H]2CSCc3cc(cc(c3)OCCCCCCO/N=C/C(=O)N[C@@H](C)C(=O)N2)CSC[C@@H](C(N)=O)NC(=O)[C@H](CO)NC1=O [compound 85, TSL6- SACMLDVISC] (ACMLDVISC-NH2; linker N-2-9 via X3)
- IC50 [1]: 66.6 µM

SMILES: CSCC[C@@H]1NC(=O)[C@@H]2CCCN2C(=O)[C@@H]2CSCc3cc(cc(c3)OCCCCCCO/N=C/C(=O)N[C@@H](CCC(N)=O)C(=O)N2)CSC[C@@H](C(N)=O)NC(=O)[C@H]([C@@H](C)O)NC(=O)[C@@H]2CCCN2C(=O)[C@H](C(C)C)NC(=O)[C@H](CC(=O)O)NC1=O [compound 28, TSL6- SQCPMDVPTC] (QCPMDVPTC-NH2; linker N-2-9 via X3)
- IC50 [1]: 0.672 µM

- IC50 [1]: 0.122 µM
SMILES: CC(=O)N[C@H]1CSSC[C@@H](C(N)=O)NC(=O)[C@H](CC(C)C)NC(=O)[C@H]([C@@H](C)O)NC(=O)[C@H](CC(=O)O)NC(=O)[C@H](CO)NC(=O)[C@H](CCCNC(=N)N)NC1=O [compound 5] (Ac-CRSDTLC-NH2; disulfide 1-7)

SMILES: CC[C@H](C)[C@@H]1NC(=O)C=NOCCCCCCOc2cc3cc(c2)CSC[C@H](NC1=O)C(=O)N[C@@H](CCCNC(=N)N)C(=O)N[C@@H]([C@@H](C)O)C(=O)N[C@@H](CC(=O)O)C(=O)N[C@@H](C(C)C)C(=O)N1CCC[C@H]1C(=O)N[C@@H]([C@@H](C)CC)C(=O)N[C@@H](CC(=O)O)C(=O)N[C@H](C(=O)O)CSC3 [SEQ ID NO: 98] (ICRTDVPIDC-OH; linker N-2-10 via X1)
- IC50 (competition ELISA, 4 μg/mL α4β7 coated, MAdCAM and peptide mixture, 28° C.): 14.4 µM

SMILES: CCC(C)C[C@@H]1NC(=O)[C@H](CC(=O)O)NC(=O)[C@H](CC(C)C)NC(=O)[C@H](CCCCN)NC(=O)[C@@H]2CSCc3cc(cc(c3)OCCCCCCO/N=C/C(=O)N[C@@H](Cc3c[nH]cn3)C(=O)N2)CSC[C@@H](C(N)=O)NC(=O)[C@H](CC(C)C)NC(=O)[C@H](Cc2c[nH]c3ccccc23)NC1=O (stereo partly shown) [compound 107, TSL6- SHCKLDIWVC] (HCKLD[hIle(4ξ)]WLC-NH2; linker N-2-9 via X3)
- IC50 [1]: > 500 µM

SMILES: CCCC[C@@H]1NC(=O)[C@@H]2CCCN2C(=O)[C@@H]2CSCc3cc(cc(c3)OCCCCCCO/N=C/C(=O)N[C@@H](CCCNC(=N)N)C(=O)N2)CSC[C@@H](C(N)=O)NC(=O)[C@H](CCCCN)NC(=O)[C@H](C(C)C)NC(=O)[C@H](Cc2c[nH]c3ccccc23)NC(=O)[C@H]([C@@H](C)CC)NC(=O)[C@H](CC(=O)O)NC1=O [compound 27, TSL6- SRCP{Nle} DIWVKC] (RCP[Nle]DIWVKC-NH2; linker N-2-10 via X3)
- IC50 [1]: 0.62 µM

SMILES: COCC[C@@H]1NC(=O)[C@@H]2CCCN2C(=O)[C@@H]2CSCc3cc(cc(c3)OCCCCCCC(=O)NCC(=O)N[C@@H](CCCNC(=N)N)C(=O)N2)CSC[C@@H](C(N)=O)NC(=O)[C@H](CCC(=O)O)NC(=O)[C@H](CCC(N)=O)NC(=O)[C@@H]2CCCN2C(=O)[C@H](CC(C)(C)C)NC(=O)[C@H](CC(=O)O)NC1=O [compound 80, TSLC7-GQCP{Hse(OMe)} D{tBuAla}PQEC] (GRCP[hSer](Me)D[tBuAla]PQEC-NH2; linker N-3-11 via X5)
- IC50 [1]: 55.9 µM

SMILES: C[C@@H](O)[C@@H]1NC(=O)[C@H](CC(=O)O)NC(=O)[C@@H]2CCCN2C(=O)[C@H](Cc2ccccc2)NC(=O)[C@@H]2CSCc3cc(cc(c3)OCCCCCCO/N=C/C(=O)N[C@@H](CC(=O)O)C(=O)N2)CSC[C@@H](C(N)=O)NC(=O)[C@H](Cc2cnc[nH]2)NC(=O)[C@H](Cc2ccc(O)cc2)NC1=O [compound 84, TSL6- SDCFPDTYHC] (DCFPDTYHC-NH2; linker N-2-9 via X3)
- IC50 [1]: 65.7 µM

SMILES: CC(C)C[C@@H]1NC(=O)[C@@H]2CCCN2C(=O)[C@@H]2CSCc3cc(cc(c3)OCCCCCCO/N=C/C(=O)N[C@@H](CCCNC(=N)N)C(=O)N2)CSC[C@@H](C(N)=O)NC(=O)[C@H](CCC(=O)O)NC(=O)[C@H](Cc2ccc(O)cc2)NC(=O)[C@H](C)NC(=O)[C@H]([C@@H](C)O)NC(=O)[C@H](CC(=O)O)NC1=O [compound 38, TSL6- SKCPLDTAYEC] (RCPLDTAYEC-NH2; linker N-2-10 via X3)
- IC50 [1]: 1.04 µM

SMILES: CSCC[C@@H]1NC(=O)[C@H](CO)NC(=O)[C@H](CC(=O)O)NC(=O)[C@@H]2CCCN2C(=O)[C@@H]2CSCc3cc(cc(c3)OCCCCCCO/N=C/C(=O)N[C@@H](CC(=O)O)C(=O)N2)CSC[C@@H](C(N)=O)NC(=O)[C@H](CO)NC(=O)[C@H](Cc2cnc[nH]2)NC(=O)[C@H](C)NC1=O [compound 65, TSL6- SDCPDSMAHSC] (DCPDSMAHSC-NH2; linker N-2-10 via X3)
- IC50 [1]: 13.8 µM

SMILES: C[C@@H](O)[C@@H]1NC(=O)[C@H](CC(=O)O)NC(=O)[C@@H]2CCCN2C(=O)[C@H](Cc2ccc(O)cc2)NC(=O)[C@@H]2CSCc3cc(cc(c3)OCCCC/C=C/O/N=C/C(=O)N[C@@H](CC(N)=O)C(=O)N2)CSC[C@@H](C(N)=O)NC(=O)[C@H](Cc2cnc[nH]2)NC(=O)[C@H](Cc2ccc(O)cc2)NC1=O [compound 89, TSL6- SNCYPDTYHC] (NCYPDTYHC-NH2; linker N-2-9 via X8)
- IC50 [1]: 79.3 µM

SMILES: CSCC[C@@H]1NC(=O)[C@H](CCCNC(=N)N)NC(=O)[C@@H]2CSCc3cc(cc(c3)OCCCCCCO/N=C/C(=O)N[C@@H]([C@H](C)O)C(=O)N2)CSC[C@@H](C(N)=O)NC(=O)[C@H](CC(=O)O)NC(=O)[C@H](CCC(N)=O)NC(=O)[C@H](Cc2ccccc2)NC(=O)[C@H](CC(=O)O)NC1=O [compound 106, TSL6- STCRMDFQDC] ([aThr]CRMDFQDC-NH2; linker N-2-9 via X3)
- IC50 [1]: 499 µM

SMILES: CC[C@H](C)[C@@H]1NC(=O)[C@H]([C@@H](C)O)NC(=O)[C@H](CC(=O)O)NC(=O)[C@H](CO)NC(=O)[C@H](CCCNC(=N)N)NC(=O)[C@@H]2CSCc3cc(cc(c3)OCCCCCCO/N=C/C(=O)N[C@@H](C)C(=O)N2)CSC[C@@H](C(N)=O)NC1=O [compound 90, TSL6- SACRSDTLC] (ACRSDTIC-NH2; linker N-2-8 via X3)
- IC50 [1]: 79.8 µM
